For orientation: EC50 means the concentration needed to bring the measured effect to its halfway point.

In PMC11648822, “Lactam Truncation Yields a Dihydroquinazolinone Scaffold with Potent Antimalarial Activity that Targets PfATP4” (Chemmedchem, 2024) one finds EC50 data, which are given here for two compounds.

The test deals with T1, Dd2‐PfATP4^G358S (Plasmodium falciparum, UniProt A0A143ZZK9, G1128R/G358S).
T1 construct: We prepared membranes from Dd2‐Polδ‐PfATP4^G358S parasites (generated previously[22]); endogenous in cells; host or cells: P. falciparum Dd2-Polδ-PfATP4^G358S trophozoites (membrane preparation)
T1 sequence (A0A143ZZK9 1-1264 G358S/G1128R): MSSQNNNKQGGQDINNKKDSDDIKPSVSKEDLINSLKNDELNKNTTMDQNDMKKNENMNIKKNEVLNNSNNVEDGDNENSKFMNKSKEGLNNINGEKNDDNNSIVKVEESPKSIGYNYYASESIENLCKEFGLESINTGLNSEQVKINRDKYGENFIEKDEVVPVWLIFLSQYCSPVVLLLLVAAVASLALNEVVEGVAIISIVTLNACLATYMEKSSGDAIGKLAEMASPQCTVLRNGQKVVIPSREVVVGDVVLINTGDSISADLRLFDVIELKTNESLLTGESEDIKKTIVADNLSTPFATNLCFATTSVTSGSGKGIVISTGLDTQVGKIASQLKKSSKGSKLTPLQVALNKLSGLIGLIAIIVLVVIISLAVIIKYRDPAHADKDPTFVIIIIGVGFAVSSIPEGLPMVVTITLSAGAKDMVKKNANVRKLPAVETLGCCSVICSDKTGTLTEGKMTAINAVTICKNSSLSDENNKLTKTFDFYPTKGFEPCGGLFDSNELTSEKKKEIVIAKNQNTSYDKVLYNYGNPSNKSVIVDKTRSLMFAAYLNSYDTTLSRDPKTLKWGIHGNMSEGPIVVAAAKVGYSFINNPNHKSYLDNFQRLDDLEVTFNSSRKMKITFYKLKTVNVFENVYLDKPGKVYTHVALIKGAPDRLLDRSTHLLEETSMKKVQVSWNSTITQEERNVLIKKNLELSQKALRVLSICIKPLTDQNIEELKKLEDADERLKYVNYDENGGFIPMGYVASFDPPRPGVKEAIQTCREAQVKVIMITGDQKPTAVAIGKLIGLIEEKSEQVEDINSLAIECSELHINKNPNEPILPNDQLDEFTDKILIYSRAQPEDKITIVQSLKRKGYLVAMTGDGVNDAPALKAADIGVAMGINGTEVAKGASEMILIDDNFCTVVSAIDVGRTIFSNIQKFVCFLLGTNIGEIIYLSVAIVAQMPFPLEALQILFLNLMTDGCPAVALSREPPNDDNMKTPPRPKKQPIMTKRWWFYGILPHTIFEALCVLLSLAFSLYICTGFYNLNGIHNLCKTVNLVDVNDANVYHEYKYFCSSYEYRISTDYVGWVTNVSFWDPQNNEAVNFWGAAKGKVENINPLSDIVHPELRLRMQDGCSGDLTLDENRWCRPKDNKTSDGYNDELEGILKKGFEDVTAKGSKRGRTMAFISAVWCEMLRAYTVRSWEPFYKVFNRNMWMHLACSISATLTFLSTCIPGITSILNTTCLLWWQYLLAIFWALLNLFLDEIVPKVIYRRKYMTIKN
The test can be described thus: PfATP4 Na+ assay (membrane ATPase), Dd2-Polδ-PfATP4^G358S membranes. Type of test: biochemical, P. falciparum. As to conditions: membranes from Dd2-Polδ-PfATP4^G358S parasites. The method, then: Figure 4 Dihydroquinazolinone analogs 14 and 36 (WJM062) inhibit Na^+‐ATPase activity in membranes prepared from isolated P. falciparum parasites, consistent with them being PfATP4 inhibitors. (A) The effects of dihydroquinazolinone compounds (2 μM), dihydroartemisinin (DHA; 50 nM; negative control) and 0.2 % v/v DMSO (solvent‐only control) on membrane ATPase activity under high‐[Na^+] conditions (152 mM Na^+) and low‐[Na^+] conditions (2 mM Na^+; stemming from the addition of 1 mM Na2ATP) in the presence and absence of the PfATP4 inhibitor cipargamin (50 nM). The membranes were prepared from isolated trophozoite‐stage 3D7 parasites. The Pi produced is expressed as a percentage of that measured in the 152 mM Na^+ Control. The data are from four independent experiments performed with different membrane preparations; the symbols show the data from individual experiments and the bars show the mean (+SEM). In individual experiments, the Pi produced in the 152 mM Na^+ Control varied from 66 to 96 nmol per mg (total) protein per min. A repeated measures ANOVA with a post hoc Tukey test was used to compare the (pre‐normalised) data for different compounds and conditions. […] In B−D, the Pi production measured in the low‐[Na^+] (2 mM) condition was subtracted from that measured in high‐[Na^+] […] The PfATP4‐associated ATPase activity is expressed as a percentage of that obtained for the high‐[Na^+] […]

On to `CN1C(=O)c2ccc(Cl)cc2NC1(C)C(=O)Nc1cncc(Cl)c1` (centres unmarked) [Compound 14, 7‐Chloro‐N‐(5‐chloro‐3‐pyridyl)‐2,3‐dimethyl‐4‐oxo‐1H‐quinazoline‐2‐carboxamide], for which the EC50 amounted to 12.1 nM. That is a double-digit nanomolar value.
Compound `COc1cc(F)c2c(c1)NC(C)(C(=O)Nc1cncc(Cl)c1)N(C)C2=O` (centres unmarked) [Compound 36, N‐(5‐Chloropyridin‐3‐yl)‐5‐fluoro‐7‐methoxy‐2,3‐dimethyl‐4‐oxo‐1,2,3,4‐tetrahydroquinazoline‐2‐carboxamide] showed an EC50 of 11.6 nM.
